Data reported in US11697648B2, “Fused pyrimidine pyridinone compounds as JAK inhibitors” (THERAVANCE BIOPHARMA R&D IP, LLC, priority 2019, dated 2023).

Assays:
Tyk2 = Tyk2 (Homo sapiens (Human), UniProt P29597); test: Biochemical Tyk2 kinase assay (LanthaScreen)
How it was run: (§1)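 GST-JAK + GFP-STAT1 peptide, HEPES pH 7.5/MgCl2/EGTA/Brij-35 buffer; cpd preincubation 1 h RT; ATP start, 1 h RT; stop with 10 mM EDTA + 2 nM Tb-anti-pSTAT1; TR-FRET 520/495. 4-parameter IC50 → pKi (Cheng-Prusoff).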

JAK1 = JAK1 (Homo sapiens (Human), UniProt P23458); test: Biochemical JAK1 kinase assay (LanthaScreen)
How it was run: as §1

Caco-2 cell monolayers = test: Caco-2 permeation assay; format: in vitro ADME; conditions: 5 μM, A-B direction, with Verapamil (25 μM)
How it was run: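 Passive A-to-B permeability with P-gp inhibited by verapamil (25 μM); compound at 5 μM, n=2. Both compartments sampled at t0 and t120 and quantified by LC-MS/MS, giving apparent permeability in cm/sec from flux, area and concentration.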

[1] = tested on: IL-2 stimulated STAT5 phosphorylation in Tall-1 human T cell line (JAK3); test: Cellular JAK3 potency assay: inhibition of IL-2 stimulated pSTAT5 in Tall-1 T cells; format: cell-based; conditions: IL-2 stimulated pSTAT5, Tall-1 T cells
How it was run: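 AlphaLISA SureFire Ultra measures STAT5 Tyr694/699 phosphorylation in lysed Tall-1 human T cells. Cells were exposed to compound for 1 h at 37 °C before a 30 min IL-2 challenge (300 ng/ml final). Values are pIC50 means with standard deviation from signal-versus-concentration curves.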

JAK2 = JAK2 (Homo sapiens (Human), UniProt O60674); test: Biochemical JAK2 kinase assay (LanthaScreen)
How it was run: as §1

JAK3 = JAK3 (Homo sapiens (Human), UniProt P52333); test: Biochemical JAK3 kinase assay (LanthaScreen); conditions: for JAK3 (pKi)-JAK1 (pKi): selectivity JAK3 over JAK1, difference of pKi
How it was run: as §1

Sequence of Tyk2 (P29597 whole entry): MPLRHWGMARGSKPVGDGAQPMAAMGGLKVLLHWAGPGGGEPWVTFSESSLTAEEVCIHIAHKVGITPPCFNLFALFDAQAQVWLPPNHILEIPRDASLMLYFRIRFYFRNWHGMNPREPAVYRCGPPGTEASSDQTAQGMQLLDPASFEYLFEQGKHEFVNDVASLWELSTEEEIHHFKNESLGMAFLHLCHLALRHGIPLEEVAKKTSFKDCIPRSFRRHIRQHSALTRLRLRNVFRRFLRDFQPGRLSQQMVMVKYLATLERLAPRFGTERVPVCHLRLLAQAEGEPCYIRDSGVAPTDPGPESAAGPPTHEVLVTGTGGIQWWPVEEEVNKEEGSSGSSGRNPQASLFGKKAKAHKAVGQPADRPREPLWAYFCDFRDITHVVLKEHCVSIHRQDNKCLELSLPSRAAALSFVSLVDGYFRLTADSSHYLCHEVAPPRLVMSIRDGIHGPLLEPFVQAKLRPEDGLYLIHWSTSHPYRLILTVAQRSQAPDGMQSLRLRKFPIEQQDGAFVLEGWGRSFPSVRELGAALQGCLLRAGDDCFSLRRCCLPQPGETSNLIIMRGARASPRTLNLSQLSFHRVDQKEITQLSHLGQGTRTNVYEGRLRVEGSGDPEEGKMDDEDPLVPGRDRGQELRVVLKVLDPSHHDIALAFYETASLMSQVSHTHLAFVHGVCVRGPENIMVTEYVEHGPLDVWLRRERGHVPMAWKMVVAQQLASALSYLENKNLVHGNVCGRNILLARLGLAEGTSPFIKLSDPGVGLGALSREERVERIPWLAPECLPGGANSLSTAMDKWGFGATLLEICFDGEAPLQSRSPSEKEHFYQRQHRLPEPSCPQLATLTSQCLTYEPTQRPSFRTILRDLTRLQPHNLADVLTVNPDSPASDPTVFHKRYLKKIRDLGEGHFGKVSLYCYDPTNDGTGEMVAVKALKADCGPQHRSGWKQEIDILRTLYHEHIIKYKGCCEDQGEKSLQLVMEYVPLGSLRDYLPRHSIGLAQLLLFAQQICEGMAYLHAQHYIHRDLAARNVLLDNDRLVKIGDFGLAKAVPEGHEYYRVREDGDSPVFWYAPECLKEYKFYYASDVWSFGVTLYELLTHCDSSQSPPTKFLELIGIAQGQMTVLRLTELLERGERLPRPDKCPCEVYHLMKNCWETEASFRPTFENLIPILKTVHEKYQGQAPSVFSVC
Sequence of JAK1 (P23458 whole entry): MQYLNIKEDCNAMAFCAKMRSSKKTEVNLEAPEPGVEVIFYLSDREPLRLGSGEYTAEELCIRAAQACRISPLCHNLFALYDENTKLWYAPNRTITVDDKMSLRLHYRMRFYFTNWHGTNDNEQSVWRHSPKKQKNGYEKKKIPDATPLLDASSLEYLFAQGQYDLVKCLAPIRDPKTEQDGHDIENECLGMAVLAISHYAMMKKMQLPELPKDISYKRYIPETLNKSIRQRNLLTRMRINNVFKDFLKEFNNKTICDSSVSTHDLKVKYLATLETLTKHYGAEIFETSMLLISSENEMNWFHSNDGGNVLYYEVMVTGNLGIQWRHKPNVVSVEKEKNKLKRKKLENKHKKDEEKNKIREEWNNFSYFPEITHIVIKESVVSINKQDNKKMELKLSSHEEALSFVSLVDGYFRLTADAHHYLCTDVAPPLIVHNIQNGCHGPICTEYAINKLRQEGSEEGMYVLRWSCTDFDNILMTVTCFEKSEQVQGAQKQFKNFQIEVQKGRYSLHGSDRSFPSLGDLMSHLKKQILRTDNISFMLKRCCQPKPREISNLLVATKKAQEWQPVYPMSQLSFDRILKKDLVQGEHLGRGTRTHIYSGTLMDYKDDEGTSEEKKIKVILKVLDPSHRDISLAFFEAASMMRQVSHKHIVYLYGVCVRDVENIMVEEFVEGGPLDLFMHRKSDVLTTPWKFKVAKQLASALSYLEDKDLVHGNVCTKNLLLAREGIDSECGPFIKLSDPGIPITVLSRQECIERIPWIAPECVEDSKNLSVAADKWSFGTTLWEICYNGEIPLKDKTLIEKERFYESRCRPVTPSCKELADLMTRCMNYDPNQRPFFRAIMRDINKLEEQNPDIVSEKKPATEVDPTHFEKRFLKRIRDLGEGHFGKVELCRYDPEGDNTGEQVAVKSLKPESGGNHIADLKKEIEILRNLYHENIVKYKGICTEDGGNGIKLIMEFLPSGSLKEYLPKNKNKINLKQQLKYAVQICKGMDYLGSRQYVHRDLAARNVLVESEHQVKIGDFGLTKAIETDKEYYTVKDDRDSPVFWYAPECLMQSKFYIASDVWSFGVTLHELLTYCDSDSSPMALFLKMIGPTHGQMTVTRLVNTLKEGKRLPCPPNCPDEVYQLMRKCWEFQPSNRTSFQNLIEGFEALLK
Sequence of JAK3 (P52333 whole entry): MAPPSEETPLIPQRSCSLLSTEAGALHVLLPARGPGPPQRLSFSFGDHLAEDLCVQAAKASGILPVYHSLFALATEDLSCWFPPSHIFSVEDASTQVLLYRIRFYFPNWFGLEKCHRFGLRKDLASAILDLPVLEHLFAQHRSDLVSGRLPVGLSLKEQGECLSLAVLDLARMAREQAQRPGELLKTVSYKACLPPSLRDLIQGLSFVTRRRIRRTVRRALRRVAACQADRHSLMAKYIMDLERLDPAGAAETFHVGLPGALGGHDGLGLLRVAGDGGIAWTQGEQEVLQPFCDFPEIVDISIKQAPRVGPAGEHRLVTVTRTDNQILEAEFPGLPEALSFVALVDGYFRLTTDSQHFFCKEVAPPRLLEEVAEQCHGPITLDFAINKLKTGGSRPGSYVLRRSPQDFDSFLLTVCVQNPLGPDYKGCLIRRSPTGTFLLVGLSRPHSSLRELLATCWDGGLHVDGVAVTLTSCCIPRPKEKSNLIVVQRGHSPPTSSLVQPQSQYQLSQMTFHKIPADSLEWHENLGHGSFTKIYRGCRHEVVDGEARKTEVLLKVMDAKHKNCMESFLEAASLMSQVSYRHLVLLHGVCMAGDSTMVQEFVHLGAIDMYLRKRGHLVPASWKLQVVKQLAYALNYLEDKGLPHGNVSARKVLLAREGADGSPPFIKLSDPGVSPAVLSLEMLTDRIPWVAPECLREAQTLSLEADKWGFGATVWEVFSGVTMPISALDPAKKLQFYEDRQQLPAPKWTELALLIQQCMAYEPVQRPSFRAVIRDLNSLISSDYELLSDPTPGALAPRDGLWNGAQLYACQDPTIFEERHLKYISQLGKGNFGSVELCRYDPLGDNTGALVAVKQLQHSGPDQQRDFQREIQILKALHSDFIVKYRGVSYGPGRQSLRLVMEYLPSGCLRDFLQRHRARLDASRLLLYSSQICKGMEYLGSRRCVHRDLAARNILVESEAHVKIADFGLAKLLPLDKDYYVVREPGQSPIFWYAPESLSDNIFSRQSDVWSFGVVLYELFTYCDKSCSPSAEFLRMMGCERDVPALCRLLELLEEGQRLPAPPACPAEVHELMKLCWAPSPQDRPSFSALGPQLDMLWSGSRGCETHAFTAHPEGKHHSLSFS
Sequence of JAK2 (O60674 whole entry): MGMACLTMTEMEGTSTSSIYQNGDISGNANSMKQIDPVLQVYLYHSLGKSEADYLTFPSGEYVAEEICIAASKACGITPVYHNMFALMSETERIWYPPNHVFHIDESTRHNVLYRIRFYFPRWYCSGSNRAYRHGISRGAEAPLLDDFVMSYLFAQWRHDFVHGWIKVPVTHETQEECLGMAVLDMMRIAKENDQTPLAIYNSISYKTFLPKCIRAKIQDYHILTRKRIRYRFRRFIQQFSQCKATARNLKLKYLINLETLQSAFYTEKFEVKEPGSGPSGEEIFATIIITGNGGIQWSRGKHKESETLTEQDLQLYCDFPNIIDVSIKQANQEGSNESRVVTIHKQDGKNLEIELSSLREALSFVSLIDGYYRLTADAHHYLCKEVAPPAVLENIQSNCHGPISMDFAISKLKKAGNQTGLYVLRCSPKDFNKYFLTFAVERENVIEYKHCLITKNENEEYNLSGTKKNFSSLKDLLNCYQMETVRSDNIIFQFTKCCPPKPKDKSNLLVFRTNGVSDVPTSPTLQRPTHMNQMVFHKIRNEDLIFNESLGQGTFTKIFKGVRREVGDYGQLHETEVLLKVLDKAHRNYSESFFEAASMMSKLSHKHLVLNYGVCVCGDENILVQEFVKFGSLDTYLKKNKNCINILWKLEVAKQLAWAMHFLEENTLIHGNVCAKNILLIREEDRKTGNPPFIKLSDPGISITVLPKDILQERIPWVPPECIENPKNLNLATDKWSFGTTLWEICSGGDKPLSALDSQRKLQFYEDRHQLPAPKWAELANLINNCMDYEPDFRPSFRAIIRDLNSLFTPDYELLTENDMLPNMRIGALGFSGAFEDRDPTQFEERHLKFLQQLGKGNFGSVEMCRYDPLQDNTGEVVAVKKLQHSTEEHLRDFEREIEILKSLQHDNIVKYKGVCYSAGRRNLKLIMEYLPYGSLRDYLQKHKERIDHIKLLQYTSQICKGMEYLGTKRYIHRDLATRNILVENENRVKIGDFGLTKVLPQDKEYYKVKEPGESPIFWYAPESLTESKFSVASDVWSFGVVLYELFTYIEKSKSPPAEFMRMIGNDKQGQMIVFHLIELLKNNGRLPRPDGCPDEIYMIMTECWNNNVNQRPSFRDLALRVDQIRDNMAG

Row | Compound | Tyk 2 (pKi) (Tyk2) | JAK 1 (pKi) (JAK1) | Caco Kp (Caco-2 cell monolayers) | Tall-1 (pIC50) [1] | JAK 2 (pKi) (JAK2) | JAK 3 (pKi) (JAK3) | JAK3 (pKi)-JAK1 (pKi) (JAK3)
1 | C=CC(=O)N1CC(CCn2c(=O)ccc3cnc(Nc4ccc(N5CCN(S(=O)(=O)CC#N)CC5)cc4)nc32)C1 [Example 101] | E (E represents a pKi value of 7 or below (Ki of 100 nM or above)) | E (E represents a pKi value of 7 or below (Ki of 100 nM or above)) | A (A represents a value below 5×10^−6 cm/sec) | B (B represents a pC50 value between 6.7 (included) and 7.5 (IC50 between 200 nM and 32 nM)) | E (E represents a pKi value of 7 or below (Ki of 100 nM or above)) | A (A represents a pKi value≥10 (Ki≤0.1 nM)) | A (A represents a value of 3 or above)
2 | C=CC(=O)N1CC(CCn2c(=O)ccc3cnc(Nc4ccc(N5CCN(C(=O)CS(C)(=O)=O)CC5)cc4)nc32)C1 [Example 151] | E (E represents a pKi value of 7 or below (Ki of 100 nM or above)) | E (E represents a pKi value of 7 or below (Ki of 100 nM or above)) | A (A represents a value below 5×10^−6 cm/sec) | C (C represents a pIC50 value between 6 and 6.7 (IC50 between 1 μM and 200 nM)) | E (E represents a pKi value of 7 or below (Ki of 100 nM or above)) | B (B represents pKi value between 9 and 10 (Ki between 1 nM and 0.1 nM)) | A (A represents a value of 3 or above)
3 | C=CC(=O)N1CC(CCn2c(=O)ccc3cnc(Nc4cnn(C5CCN(C(=O)CSC)CC5)c4)nc32)C1 [Example 210] | E (E represents a pKi value of 7 or below (Ki of 100 nM or above)) | E (E represents a pKi value of 7 or below (Ki of 100 nM or above)) | A (A represents a value below 5×10^−6 cm/sec) | B (B represents a pC50 value between 6.7 (included) and 7.5 (IC50 between 200 nM and 32 nM)) | E (E represents a pKi value of 7 or below (Ki of 100 nM or above)) | A (A represents a pKi value≥10 (Ki≤0.1 nM)) | A (A represents a value of 3 or above)
4 | C=CC(=O)N1CC(CCn2c(=O)ccc3cnc(Nc4ccc(N5CCN(C(=O)COC)CC5)cc4)nc32)C1 [Example 70] | E (E represents a pKi value of 7 or below (Ki of 100 nM or above)) | E (E represents a pKi value of 7 or below (Ki of 100 nM or above)) | A (A represents a value below 5×10^−6 cm/sec) | B (B represents a pC50 value between 6.7 (included) and 7.5 (IC50 between 200 nM and 32 nM)) | E (E represents a pKi value of 7 or below (Ki of 100 nM or above)) | B (B represents pKi value between 9 and 10 (Ki between 1 nM and 0.1 nM)) | A (A represents a value of 3 or above)
5 | C=CC(=O)N1CC(CCn2c(=O)ccc3cnc(Nc4ccc(N5CCN(S(C)(=O)=O)CC5)cc4)nc32)C1 [Example 94] | E (E represents a pKi value of 7 or below (Ki of 100 nM or above)) | E (E represents a pKi value of 7 or below (Ki of 100 nM or above)) | A (A represents a value below 5×10^−6 cm/sec) | A (A represents a pIC50 value≥7.5 (IC50≤32 nM)) | E (E represents a pKi value of 7 or below (Ki of 100 nM or above)) | A (A represents a pKi value≥10 (Ki≤0.1 nM)) | A (A represents a value of 3 or above)
6 | C=CC(=O)N1CC(CCn2c(=O)ccc3cnc(Nc4ccc(-n5ccnn5)cc4)nc32)C1 [Example 67] | E (E represents a pKi value of 7 or below (Ki of 100 nM or above)) | E (E represents a pKi value of 7 or below (Ki of 100 nM or above)) | B (B represents a value between 5×10^−6 and 10×10^−6 cm/sec) | B (B represents a pC50 value between 6.7 (included) and 7.5 (IC50 between 200 nM and 32 nM)) | E (E represents a pKi value of 7 or below (Ki of 100 nM or above)) | B (B represents pKi value between 9 and 10 (Ki between 1 nM and 0.1 nM)) | A (A represents a value of 3 or above)
